Laboratory results from article PMC11407620, “Repurposing auranofin and meclofenamic acid as energy-metabolism inhibitors and anti-cancer drugs” (PLOS ONE, 2024).
Where “and” joins values, the source holds several entries; their conditions need not be identical. Identical values can stand only once.

How the values were obtained:
[1] = system: HeLa, MDA-MB-231 and MDA-MB-468 cells; assay: Cell invasiveness, Boyden chamber; assay type: cell-based, human; conditions: Aur at IC50 (1.7, 0.8, 2 μM); 24 h
Experimental: (§1) The 96-multiwell Boyden chambers (Merck Millipore, MA, USA) assay was performed for cellular invasiveness detection. Cancer cells (5 × 10^4 cells/well) were re-suspended in free-serum DMEM and placed in the upper Boyden chamber compartment. Free-serum DMEM was also placed in the lower compartment of the chamber. Afterwards, the Boyden chamber was placed at 37°C and 95% air/5% CO2 for 24 h. Invasive cancer cells within the lower chamber compartment were detected by using the calcein-AM (60 nM, 1 h) assay at 37°C. Calcein-fluorescence was measured at λexcitation = 485 nm and λemission = 520 nm in a Nunclon microplate reader (Roskilde, Denmark).
(§2) The Aur concentration added was 1.7, 0.8, 2 and 0.6 μM for HeLa, MDA-MB-231, MDA-MB-468 and U373 cells, respectively. n = 3; *p < 0.05, **p<0.01 vs. Control (Non-treated cells).

[2] = system: U373 glioblastoma cells; assay: Cell invasiveness, Boyden chamber; assay type: cell-based, human; conditions: 0.6 μM Aur, 24 h
Experimental: as §1, §2

[3] = design: method as in doi:10.1016/j.ccr.2017.02.015, PMID 36770718; conditions: cited from earlier work
[4] = system: Breast MDA-MB-468 cells; assay: Cell proliferation, 24 h drug exposure; assay type: cell-based, human
Experimental: (§3) All metastatic (breast MDA-MB231, MDA-MB468, cervix HeLa, prostate PC3, colorectal HCT116, COLO205, glioblastoma U373), low-metastatic (breast MCF-7) cancer and non-cancer (fibroblast 3T3, cardiomyocytes H9C2) cell lines (American Type Culture Collection, Rockville, MD, USA) used in this study were cultured in Petri dishes in 20 mL of Dulbecco’s Modified Eagle’s Medium (DMEM, Sigma, MO, USA) supplemented with 10% fetal bovine serum (Biowest, Mexico) and 10,000 U penicillin/streptomycin (Sigma-Aldrich, MO, USA). […] For growth and maintenance, cells were incubated in 5% CO2/95% air at 37°C and kept until 80–90% of confluence was reached. Then, cells were harvested, washed by centrifugation and resuspended in Krebs-Ringer buffer (KR, 125 mM NaCl, 5 mM KCl, 25 mM Hepes, 1 mM MgCl2, 1 mM KH2PO4, 1.4 mM CaCl2, pH 7.4) for further use. For experimentation, cancer cells (3–5 x 10^6 cells) were cultured in DMEM (with 25 mM glucose) for 24 h in the absence of drugs. Afterwards, old-medium was replaced with fresh DMEM medium (with 25 mM glucose) in the absence (control, non-treated cells) or in the presence of logarithmic concentrations of Aur and MA for 24 h more, under the same culture conditions described above. Viability of cultured cells was determined by the trypan blue exclusion assay. The protein concentration was determined by the Lowry method.
(§4) For cell proliferation in the presence of drugs, cancer cells (20 x 10^3 cells/well) were grown in 96-well plates containing DMEM (Sigma-Aldrich) plus 10% bovine fetal serum for 24 h. Afterwards, Aur or MA (0.01, 0.1, 10 and 100 μM) were added to the cell cultures and incubated for additional 24 h. The effect of these drugs on cell proliferation was determined in 96-well plates by the MTT (3-[4,5-dimethyl-thiazol-2-yl]-2,5-diphenyltetrazolium bromide) assay. The viability of cancer cells was > 95% after treatment with drugs.

[5] = system: Colorectal COLO205 cells; assay: Cell proliferation, 24 h drug exposure; assay type: cell-based, human
Experimental: as §3, §4

[6] = design: method as in PMID 27821451, PMID 6411921; conditions: patients receiving oral Aur; after 24 h -7 d of treatment; cited from earlier work
[7] = system: Rat Heart Mitochondria; assay: Oxygen consumption of isolated mitochondria; assay type: biochemical; conditions: 5 mM Glutamate/5 mM Malate
Experimental: Rat liver (RLM) and heart (RHM) mitochondria were isolated as described previously by differential centrifugation.
Respiration of AS-30D, liver and heart mitochondria (1 mg protein/mL) was assayed oxygraphically with a Clark-type O2 electrode in KME (120 mM KCl, 20 mM Mops, 1 mM EGTA) buffer pH 7.2 plus 2 mM KH2PO4, and different oxidizable substrates (as indicated in Results). For state 3 respiration, 600 nmol ADP were added. Mitochondria were incubated at 37°C with Aur and MA for 30–60 s before substrates were added. At the end of each respiratory measurement, dithionite was added to get the chemical zero oxygen signal.

[8] = system: HeLa cells; assay: Cell invasiveness, Boyden chamber; assay type: cell-based; conditions: Homo sapiens, MA 10 μM, 24 h
Experimental: as §1
S1 Figure. Cancer invasiveness assay in metastatic cancer cells exposed to MA (A) and perhexiline (B) for 24 h. All cancer cell invasiveness was compared with MDA-MB-231 cells, which are cancer cells with the highest invasiveness ability. n=3; *P < 0.05 vs. MDA-MB-231 non-treated cells.

CC(=O)OC[C@H]1O[C@@H]([S-])[C@H](OC(C)=O)[C@@H](OC(C)=O)[C@@H]1OC(C)=O.CCP(CC)CC.[Au+] [Aur, [1-(thio-κS)-β-D-glucopyranose-2,3,4,6-tetraacetyl] (triethylphosphine)-gold]
inhibition of invasiveness [1]: 45–80% | inhibition of cell invasiveness [2]: 75% | stability in aqueous media [3]: unstable | IC50 ([4]; Breast MDA-MB-468, 24 h, read-out: IC50 for proliferation cell rate): 2 ± 1 µM | TI ratio (3T3/ cancer cells) ([4]; IC50 3T3 / IC50 MDA-MB-468): 21 | TI ratio (H9C2/cancer cells) ([4]; IC50 H9C2 / IC50 MDA-MB-468): 39 | IC50 ([5]; Colorectal COLO205, 24 h, read-out: IC50 for proliferation cell rate): 6 ± 2 µM | TI ratio (3T3/ cancer cells) ([5]; IC50 3T3 / IC50 COLO 205): 7 | TI ratio (H9C2/cancer cells) ([5]; IC50 H9C2 / IC50 COLO 205): 13 | blood Aur levels [6]: 49–310 ng/mL and 0.1–0.6 μM

Cc1ccc(Cl)c(Nc2ccccc2C(=O)O)c1Cl [MA, Meclofenamic acid]
Net State 3 oxygen consumption rate ([7]; 10 μM MA): 48 ± 83 | Pseudo State 4 oxygen consumption rate ([7]; 10 μM MA): 143 ± 42 (3) | RC ([7]; 10 μM MA): 1.4 ±0.6 (3) | State 3 oxygen consumption rate ([7]; 10 μM MA): 177 ± 56 (3) | State 4 oxygen consumption rate ([7]; 10 μM MA): 126 ± 16 (3) | Net State 3 oxygen consumption rate ([7]; 50 μM MA): 12.5± 22 | Pseudo State 4 oxygen consumption rate ([7]; 50 μM MA): 134 ± 9.5 (3) | RC ([7]; 50 μM MA): 1 (3) | State 3 oxygen consumption rate ([7]; 50 μM MA): 139 ± 22 (3) | State 4 oxygen consumption rate ([7]; 50 μM MA): 139 ± 22 (3) | inhibition at 10 µM [8]: 65%
